Laboratory results taken from patent publication US6117845A, “C-linked analogs of N-(4-hydroxyphenyl) retinamide” (Ohio State University Research Foundation, priority 1999, dated 2000).

Tests used:
LA1-15n cells = test: Assay for cell growth inhibition, LA1-15n cells, 48 h; format: cell-based; conditions: human neuroblastoma LA1-15n cells, 0.1, 1 or 10 μM, FIG. 2
Method: (§1) All-trans retinoic acid (atRA) was purchased from Eastman Kodak, Rochester, N.Y. Stock solutions were prepared in 100% ethanol and concentrations were determined on a Shimadzu UV-2100 spectrophotometer (4-HBR: λmax=380nm, ε=39,891; 4-HPR: λmax=365 nm, ε=47,900; atRA: λmax=340 nm, ε=45,300). Compound purity was assessed using a Waters HPLC-PDA with a 600E solvent delivery system using a Zorbax ODS, 250×4.6 mm, 5 micron column (Phenomenex, Torrance, Calif.). The column was equilibrated in 88% methanol/water with 10 mM ammonium acetate (flow rate of 1 ml/min). 4-HBR eluted at about 18 min., 4-HPR at about 12 min., and atRA at about 8 min with estimated purities of 96%, 100% and 100% respectively. Retinoids were blanketed with argon and stored at -70° C. until use. […]
Cells (100,000 cells) were passed into a 25 cm^3 flask in 10 ml of medium. […] Two 20 μl aliquots were counted from each treatment group on a Nikon Diaphot 200 fluorescent microscope. Four out of five fields were counted on each side of the hemocytometer. Fluorescence was used to count the number of live cells and phase-contrast was used to count the number of total cells. The average number of live cells per field was divided by the total number of cells per field and expressed as a percentage of the control. […]

Acid stability of 4-HBR = format: physicochemical; conditions: 0.1 N methanolic HCl at 37° C. for 2 hours
[1] = test system: serum retinol-binding protein (RBP); test: Serum retinol binding protein binding study (competition with tritiated all-trans retinol); conditions: human RBP 0.1 μg/μl, 250 nM all-trans-(3H)-ROL, 4° C., FIG. 3
Method: RBP (human) was obtained commercially (Sigma). RBP (0.1 μg/μl) was incubated with 250 nM all-trans-(^3 H)-ROL (approx. 5 Ci/mmole) with and without competing ligands at 4° C. for 3 hours. Tritiated retinoid-labeled protein-containing extracts were treated with dextran-coated charcoal to remove unbound ligand before subjecting samples to sedimentation analysis on 5 to 20% sucrose density gradients. ^14 C-Labeled proteins were included with samples as internal sedimentation standards. Gradients were centrifuged at 257,000 g for 20 hours at 4° C. followed by fractionation and analysis of radioactivity.

MCF7 cells = test: Assay for cell growth inhibition, MCF-7 cells, 72 h; format: cell-based; conditions: human mammary carcinoma MCF-7 cells, 0.1, 1 or 10 μM, FIG. 1
Method: as §1, with “respectively.” for “respectively. Retinoids were blanketed with argon and stored at -70° C. until use.”
Cells (100,000 cells) were passed into a 25 cm^3 flask in 10 ml of medium. […] Two 20 μl aliquots were counted from each treatment group on a Nikon Diaphot 200 fluorescent microscope. Four out of five fields were counted on each side of the hemocytometer. Fluorescence was used to count the number of live cells and phase-contrast was used to count the number of total cells. The average number of live cells per field was divided by the total number of cells per field and expressed as a percentage of the control.
The antiproliferative activity of 4-HPR, 4-HBR, and atRA against MCF-7 human mammary tumor cell culture models was determined using the above-described protocol. […]

- stability under acidic conditions (Acid stability of 4-HBR): remained intact
SMILES: CC1=C(/C=C/C(C)=C/C=C/C(C)=C/C(=O)Cc2ccc(O)cc2)C(C)(C)CCC1 [compound 16, 4-hydroxybenzyl retinone]
- growth inhibition of LA1-15n cells (viability, live cells as percentage of control) (LA1-15n cells): inhibits the growth of LA1-15n cells in a dose-dependant fashion
- affinity for serum RBP relative to 4-HPR [1]: binds to serum RBP with less affinity than does 4-HPR
- growth inhibition of MCF7 cells (viability, live cells as percentage of control) (MCF7 cells): inhibits the growth of MCF7 cells in a dose-dependant fashion
